Structures are written as SMILES. “Also recorded” adds a separate entry of the source.

One test concerns NFAT signal. As to the kind of experiment: NFAT signal inhibitory effect: pNFAT-Luc luciferase reporter assay with ionomycin stimulation. The class given is cell-based, human. The conditions noted are these: HEK293 cells transfected with pNFAT-Luc; 1 μM ionomycin; assay after 8 hours; FIG. 4. As for the experimental part:
(1) Materials and Methods for Evaluation System
In this evaluation system, human kidney (HEK293) cells were purchased from ATCC (American Type Culture Collection) and used. HEK293 cells were cultured in DMEM (High glucose, 10% heat-inactivated FBS) under the conditions of 37° C. and 5% CO2.
In this evaluation system, HEK293 cells transfected with a plasmid having firefly luciferase introduced into the downstream of the NFAT-binding sequence, pNFAT-Luc (Stratagene), were used. More specifically, pNFAT-Luc (Stratagene), in which firefly luciferase gene was introduced in the downstream of 4 copies of the NFAT-binding sequence, was transfected into HEK293 cells for an evaluation of the NFAT transcription activity. Furthermore, for the purpose of eliminating fluctuation due to the transfection efficiency, pRL-CMV (Promega) having Renilla luciferase introduced in the downstream of CMV promoter, was simultaneously transfected so as to correct for the signal derived from firefly luciferase.
Transfection was carried out using LipofectAMINE 2000 reagent (Invitrogen) according to the manual. The medium was exchanged eight hours after the transfection, and the system was incubated overnight. Thereafter, the component A, component B and component C obtained in Example 1, and the deacylation product of the component A prepared in Example 3 were added thereto, and further after one hour, 1 μM ionoinycin was added thereto. After 8 hours, a luciferase reporter assay was carried out.
Luciferase Reporter Assay
The luciferase reporter assay was carried out using Dual-Glo Luciferase Assay System (Promega) according to the manual. That is, the medium was removed, and then Dual-Glo luciferase reagent which had been diluted two times with PBS, was added thereto. The system was stirred, and after 20 minutes, the firefly luciferase activity was measured. Thereafter, an equal amount of Dual-Glo Stop&Glo reagent was added to the system, the mixture was stirred, and then the Renilla luciferase activity was measured. The luciferase activity measurement was carried out using MiniLumat LB 9506 (EG&G Berthold), and the amount of luminescence by luciferase was quantitatively detected. For both luciferases, the duration for luciferase activity measurement was set to 2 seconds.
Calculation of NFAT Signal Inhibitory Rate.
All of the NFAT transcription activity values (firefly luciferase activity) were corrected by dividing the values of the Renilla luciferase activity introduced for the transfection efficiency correction. Thereafter, the NFAT signal inhibitory rate was calculated by the following expression.
NFAT signal inhibitory rate (%)=100−(Test sample and ionomycin-added group−non-stimulation group)/(Ionomycin only-added group−non-stimulation group)×100
In general terms: A reporter such as luciferase makes a cellular process visible.

A further test relates to swine hair follicles. As to the kind of experiment: Evaluation of hair shaft elongation by swine hair follicle organ culture. As to conditions: isolated pig hair follicles cultured 8 days; solvent control (ethanol) taken as 100%; FIG. 6. Type of test: cell-based. The protocol:
Evaluation of Hair Shaft Elongation by Swine Hair Follicle Organ Culture
The skin of buttocks of a pig for meat was separated into an appropriate size, and excess fatty tissue was removed. The pigskin was disinfected by immersing in a hibitane solution (5% hibitane solution (Dainippon Sumitomo Pharma Co., Ltd.) diluted to 5 to 20 times with water) for 5 minutes to 10 minutes under sterile conditions, and after that was washed several times with D-PBS. Subsequently, hair follicles were isolated from the washed pigskin under a stereoscopic microscope, and the hair follicles were collected in William's Medium E (Invitrogen) medium. […]
The component A and component B obtained in Example 1 were added to the above-mentioned medium, and the system was cultured for 8 days, together with an ethanol-added group, which was a solvent control. Stereomicroscopic images of the culture were captured on the day of culture initiation (zeroth day) and on the eighth day with a CCD camera (Pixera Model No. PVC 100C), and from those images, the length from the base of the hair bulb to the tip of the hair shaft was measured. Thereafter, the hair shaft elongation ratios of the component A and component B obtained in Example 1 were calculated, with the amount of hair shaft elongation of the solvent control group before and after culture being taken as 100%.

`C/C=C(/C)C(=O)OC1c2c(ccc3ccc(=O)oc23)O[C@@H]1C(C)(C)OC(=O)C=C(C)C` (stereo partly drawn) [component C, 3′-angeloyloxy-4′-senecioyloxy-2′,3′-dihydrooroselol]: the “NFAT signal inhibitory rate” value in the test with NFAT signal is given as “inhibited the NFAT signal; also recorded: strong NFAT signal inhibitory activity”.

With `C/C=C(/C)C(=O)OC1c2c(ccc3ccc(=O)oc23)O[C@@H]1C(C)(C)OC(=O)/C(C)=C\C` (stereo partly drawn) [component A, archangelicin], the “NFAT signal inhibitory rate” value with NFAT signal is “inhibited the NFAT signal; also recorded: strong NFAT signal inhibitory activity”. Moreover, the “hair shaft elongation ratio (hair-growing effect)” value in the test on swine hair follicles is “significant hair shaft elongation”. Turning to `C/C=C(/C)C(=O)OC(C)(C)[C@H]1Oc2ccc3ccc(=O)oc3c2[C@H]1O` [deacylation product of the component A, 3′-hydroxy-4′-angeloyloxy-2′,3′-dihydrooroselol], in the test with NFAT signal, the “NFAT signal inhibitory rate” value was “inhibited the NFAT signal”.

Take `C/C=C(/C)C(=O)OC1c2c(ccc3ccc(=O)oc23)OC1C(C)(C)OC(=O)CC(C)C` (stereo not drawn) [component B, 3′-angeloyloxy-4′-isovaleryloxy-2′,3′-dihydrooroselol]: in the test with NFAT signal, the “NFAT signal inhibitory rate” value is reported as “inhibited the NFAT signal; also recorded: strong NFAT signal inhibitory activity”. Moreover, in the test with swine hair follicles, the “hair shaft elongation ratio (hair-growing effect)” value is given as “significant hair shaft elongation”.

These data come from patent US8420836B2, “NFAT signal inhibitor and hair-growing agent” (Kao Corporation, priority 2008, dated 2013).
